In data set [1] the test system is Plasma. In words: Fraction unbound in human plasma. It is filed as ADME, cell-free.
In data set [2] the target is T1, Muscarinic acetylcholine receptor M5 (Homo sapiens, UniProt P08912).
T1 sequence (P08912 whole entry): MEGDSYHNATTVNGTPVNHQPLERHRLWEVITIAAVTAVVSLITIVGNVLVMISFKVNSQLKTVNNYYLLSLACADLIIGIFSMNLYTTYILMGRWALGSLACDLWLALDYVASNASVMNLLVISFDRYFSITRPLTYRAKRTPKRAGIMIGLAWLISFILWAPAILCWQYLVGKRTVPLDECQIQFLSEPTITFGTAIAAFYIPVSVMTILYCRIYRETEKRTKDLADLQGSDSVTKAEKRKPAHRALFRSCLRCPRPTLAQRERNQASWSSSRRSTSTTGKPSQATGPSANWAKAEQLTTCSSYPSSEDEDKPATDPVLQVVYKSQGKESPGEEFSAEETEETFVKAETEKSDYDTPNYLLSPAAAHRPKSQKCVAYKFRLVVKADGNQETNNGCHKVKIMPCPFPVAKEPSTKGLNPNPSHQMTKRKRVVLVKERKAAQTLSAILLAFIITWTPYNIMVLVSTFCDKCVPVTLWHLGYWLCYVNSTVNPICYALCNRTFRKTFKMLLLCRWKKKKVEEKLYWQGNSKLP
Put plainly: Antagonist activity at human muscarinic M5 receptor assessed as inhibition of acetylcholine-induced calcium mobilization. It is filed as functional.

A short description of data set [3]: Plasma clearance in iv dosed rat. The class given is ADME, organism-based.
Another data set deals with Brain. In words: Fraction unbound in rat brain homogenate. It is filed as ADME, tissue-based.
Data set [4] concerns the target Muscarinic acetylcholine receptor M3 (Homo sapiens, UniProt P20309). Put plainly: Antagonist activity at human muscarinic M3 receptor assessed as inhibition of acetylcholine-induced calcium mobilization. It is filed as functional.
In data set [5] the target is T2, Muscarinic acetylcholine receptor M4 (Homo sapiens, UniProt P08173).
T2 sequence (P08173 whole entry): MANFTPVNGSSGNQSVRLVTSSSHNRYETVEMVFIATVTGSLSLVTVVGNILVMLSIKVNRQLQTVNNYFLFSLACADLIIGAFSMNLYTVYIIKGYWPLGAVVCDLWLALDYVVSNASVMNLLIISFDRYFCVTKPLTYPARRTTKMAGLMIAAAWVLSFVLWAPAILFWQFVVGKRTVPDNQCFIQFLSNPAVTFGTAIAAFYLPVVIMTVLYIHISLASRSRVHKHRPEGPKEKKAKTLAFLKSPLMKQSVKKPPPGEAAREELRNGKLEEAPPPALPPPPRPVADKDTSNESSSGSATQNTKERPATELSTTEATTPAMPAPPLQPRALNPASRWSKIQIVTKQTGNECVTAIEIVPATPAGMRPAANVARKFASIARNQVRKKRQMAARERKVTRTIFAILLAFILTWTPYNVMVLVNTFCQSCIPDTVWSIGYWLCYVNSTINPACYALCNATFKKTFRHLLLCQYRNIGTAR
Put plainly: Antagonist activity at human muscarinic M4 receptor assessed as inhibition of acetylcholine-induced calcium mobilization. It is filed as functional.

Data set [6] has as its target T3, Muscarinic acetylcholine receptor M1 (Homo sapiens) (UniProt P11229).
T3 sequence (whole entry): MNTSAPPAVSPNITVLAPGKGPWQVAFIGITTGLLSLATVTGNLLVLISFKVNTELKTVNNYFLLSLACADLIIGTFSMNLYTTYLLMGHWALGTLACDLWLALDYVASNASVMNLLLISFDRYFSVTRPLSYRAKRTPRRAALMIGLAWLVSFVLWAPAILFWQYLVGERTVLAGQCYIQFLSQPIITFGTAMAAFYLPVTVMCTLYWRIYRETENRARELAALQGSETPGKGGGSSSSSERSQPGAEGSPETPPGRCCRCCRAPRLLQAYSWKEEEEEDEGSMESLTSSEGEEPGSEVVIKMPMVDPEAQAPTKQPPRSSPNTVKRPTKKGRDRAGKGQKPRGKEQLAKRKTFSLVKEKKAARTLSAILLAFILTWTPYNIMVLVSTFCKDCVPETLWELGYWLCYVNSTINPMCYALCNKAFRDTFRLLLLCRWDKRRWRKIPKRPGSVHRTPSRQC
Put plainly: (§1) Antagonist activity at human muscarinic M1 receptor expressed in CHO cells assessed as inhibition of acetylcholine-induced calcium mobilization by fluorescence analysis. It is filed as functional, cell-based.

The target in data set [7] is T4, Muscarinic acetylcholine receptor M1 (Homo sapiens, UniProt P11229).
T4 sequence (P11229 whole entry): T3 sequence (whole entry)
The data set is described as §1. It is filed as functional, cell-based. The settings on record: read-out: IC50.

Another data set has as its target Cytochrome P450 2D6 (Homo sapiens, UniProt P10635). Put plainly: Inhibition of CPY2D6.
A further data set has as its target Cytochrome P450 3A4 (Homo sapiens, UniProt P08684). In words: Inhibition of CPY3A4.
The target of data set [8] is T3, Muscarinic acetylcholine receptor M1 (Homo sapiens). In words: Displacement of [3H]NMS from human muscarinic M1 receptor.
The target of a further data set is T5, Cytochrome P450 1A2 (Homo sapiens, UniProt P05177).
T5 sequence (P05177 whole entry): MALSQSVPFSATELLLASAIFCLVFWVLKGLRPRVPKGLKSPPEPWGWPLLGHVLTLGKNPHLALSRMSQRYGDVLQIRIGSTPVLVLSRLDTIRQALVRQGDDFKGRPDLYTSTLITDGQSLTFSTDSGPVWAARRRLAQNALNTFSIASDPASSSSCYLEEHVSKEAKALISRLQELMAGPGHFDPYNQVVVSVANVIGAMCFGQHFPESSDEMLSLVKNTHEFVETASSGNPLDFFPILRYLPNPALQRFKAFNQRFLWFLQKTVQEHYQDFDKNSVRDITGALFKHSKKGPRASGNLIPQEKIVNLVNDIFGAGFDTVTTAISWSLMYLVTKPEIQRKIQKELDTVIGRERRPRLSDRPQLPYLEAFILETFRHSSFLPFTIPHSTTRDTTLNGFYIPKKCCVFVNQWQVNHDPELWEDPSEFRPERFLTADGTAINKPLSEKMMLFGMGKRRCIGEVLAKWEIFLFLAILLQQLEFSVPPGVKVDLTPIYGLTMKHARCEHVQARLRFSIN
Put plainly: Inhibition of CPY1A2.

Another data set concerns the target Cytochrome P450 2C9 (Homo sapiens, UniProt P11712). In words: Inhibition of CPY2C9.
In data set [9] the target is T6, Muscarinic acetylcholine receptor M2 (Homo sapiens, UniProt P08172).
T6 sequence (P08172 whole entry): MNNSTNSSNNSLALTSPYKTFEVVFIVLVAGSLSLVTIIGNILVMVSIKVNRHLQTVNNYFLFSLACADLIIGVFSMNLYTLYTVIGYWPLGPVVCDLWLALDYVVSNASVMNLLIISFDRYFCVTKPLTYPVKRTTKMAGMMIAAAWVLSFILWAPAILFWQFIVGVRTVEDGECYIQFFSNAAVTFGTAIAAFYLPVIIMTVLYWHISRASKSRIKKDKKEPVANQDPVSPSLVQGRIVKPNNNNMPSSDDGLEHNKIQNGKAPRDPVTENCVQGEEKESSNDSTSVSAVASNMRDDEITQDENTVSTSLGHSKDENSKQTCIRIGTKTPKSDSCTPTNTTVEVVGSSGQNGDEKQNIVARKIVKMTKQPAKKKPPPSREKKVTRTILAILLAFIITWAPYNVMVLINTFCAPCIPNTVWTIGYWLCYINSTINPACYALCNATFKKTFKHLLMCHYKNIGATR
In words: Antagonist activity at human muscarinic M2 receptor assessed as inhibition of acetylcholine-induced calcium mobilization. The class given is functional.

The subject of data set [10] is Plasma. In words: Fraction unbound in rat plasma. It is filed as ADME, cell-free.
Data set [11] has as its target T3, Muscarinic acetylcholine receptor M1 (Homo sapiens). Put plainly: Antagonist activity at human muscarinic M1 receptor assessed as rightward shift in acetylcholine concentration response curve. The class given is functional.
The target is the same in data set [12]. Put plainly: Antagonist activity at human muscarinic M1 receptor expressed in CHO cells assessed as inhibition of acetylcholine-induced calcium mobilization at 30 uM measured after 15 mins by fluorescence analysis. The class given is functional, cell-based. On the set-up: scale not given: the % may be the effect or the level left.

The source made the active and inactive calls. The rule behind the calls is not given here.

Muscarinic acetylcholine receptor M3, sequence (P20309 whole entry): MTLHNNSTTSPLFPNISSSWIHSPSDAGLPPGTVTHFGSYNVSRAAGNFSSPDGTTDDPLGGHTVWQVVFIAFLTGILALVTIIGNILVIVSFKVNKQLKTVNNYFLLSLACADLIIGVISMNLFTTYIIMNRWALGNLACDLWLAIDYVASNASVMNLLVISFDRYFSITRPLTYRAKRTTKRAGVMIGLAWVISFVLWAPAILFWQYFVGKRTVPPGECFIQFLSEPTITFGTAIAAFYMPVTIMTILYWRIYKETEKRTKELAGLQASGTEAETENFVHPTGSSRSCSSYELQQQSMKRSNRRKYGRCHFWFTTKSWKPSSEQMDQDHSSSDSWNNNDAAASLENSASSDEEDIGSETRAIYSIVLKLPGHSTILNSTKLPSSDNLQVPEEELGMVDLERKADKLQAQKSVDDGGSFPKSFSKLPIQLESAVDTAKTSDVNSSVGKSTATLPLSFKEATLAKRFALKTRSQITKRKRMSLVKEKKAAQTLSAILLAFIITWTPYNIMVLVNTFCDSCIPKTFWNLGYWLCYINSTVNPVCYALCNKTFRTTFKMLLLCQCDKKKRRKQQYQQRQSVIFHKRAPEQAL
Cytochrome P450 2D6, sequence (P10635 whole entry): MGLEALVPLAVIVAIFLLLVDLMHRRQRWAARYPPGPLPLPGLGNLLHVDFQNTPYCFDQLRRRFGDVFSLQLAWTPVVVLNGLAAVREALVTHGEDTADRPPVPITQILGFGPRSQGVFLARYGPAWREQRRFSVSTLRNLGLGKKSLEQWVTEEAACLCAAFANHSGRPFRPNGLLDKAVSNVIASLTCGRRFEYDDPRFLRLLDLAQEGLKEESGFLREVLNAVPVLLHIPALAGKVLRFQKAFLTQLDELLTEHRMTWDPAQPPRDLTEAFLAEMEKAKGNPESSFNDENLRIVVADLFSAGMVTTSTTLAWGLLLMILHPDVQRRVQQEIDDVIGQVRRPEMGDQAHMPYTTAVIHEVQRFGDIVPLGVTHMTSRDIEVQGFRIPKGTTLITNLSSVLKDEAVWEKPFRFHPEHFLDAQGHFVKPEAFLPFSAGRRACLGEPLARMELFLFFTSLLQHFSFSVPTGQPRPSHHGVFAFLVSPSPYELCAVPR
Cytochrome P450 3A4, sequence (P08684 whole entry): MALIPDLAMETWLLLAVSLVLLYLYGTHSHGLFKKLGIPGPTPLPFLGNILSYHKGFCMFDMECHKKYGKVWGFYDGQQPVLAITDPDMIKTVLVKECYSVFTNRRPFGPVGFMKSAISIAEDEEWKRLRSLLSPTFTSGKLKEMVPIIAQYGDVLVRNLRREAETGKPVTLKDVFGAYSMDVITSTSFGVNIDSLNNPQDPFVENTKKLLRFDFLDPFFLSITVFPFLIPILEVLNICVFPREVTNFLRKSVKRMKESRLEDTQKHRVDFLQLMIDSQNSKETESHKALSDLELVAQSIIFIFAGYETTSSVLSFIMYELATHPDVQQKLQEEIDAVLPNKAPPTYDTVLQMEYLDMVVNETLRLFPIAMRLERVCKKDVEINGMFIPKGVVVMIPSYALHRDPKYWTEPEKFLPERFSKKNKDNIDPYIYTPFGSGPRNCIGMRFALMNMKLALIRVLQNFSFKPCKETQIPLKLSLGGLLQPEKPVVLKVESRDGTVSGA
Cytochrome P450 2C9, sequence (P11712 whole entry): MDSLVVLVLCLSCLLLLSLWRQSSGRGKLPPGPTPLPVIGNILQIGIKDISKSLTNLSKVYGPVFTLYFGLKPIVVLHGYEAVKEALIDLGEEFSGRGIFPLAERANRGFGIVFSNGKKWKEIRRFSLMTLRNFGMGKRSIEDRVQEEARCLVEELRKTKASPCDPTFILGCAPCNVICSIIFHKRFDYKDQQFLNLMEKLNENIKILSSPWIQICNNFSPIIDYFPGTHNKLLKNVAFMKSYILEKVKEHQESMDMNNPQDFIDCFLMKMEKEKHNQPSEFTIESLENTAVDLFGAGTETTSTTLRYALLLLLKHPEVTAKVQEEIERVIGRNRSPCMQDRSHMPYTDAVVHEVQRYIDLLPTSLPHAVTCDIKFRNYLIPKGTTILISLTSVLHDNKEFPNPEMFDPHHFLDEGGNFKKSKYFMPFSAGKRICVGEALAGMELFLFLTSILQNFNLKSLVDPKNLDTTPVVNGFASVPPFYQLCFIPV

Take `O=C(C1CN(S(=O)(=O)c2cccc3cnccc23)C1)N1CC2CN(c3ccncc3)CC2C1` (configuration not stated): the Fu with Plasma [1] is reported as 0.9%; with Brain, 0.08%; with Plasma [10], 0.6%. The half-maximal inhibitory concentration (IC50) in [2] was greater than 10 µM; in data set [4], greater than 10 µM; in data set [5], greater than 10 µM; in data set [7], 0.23 µM; on Cytochrome P450 2D6 it was less than 2.5 µM; on Cytochrome P450 3A4, less than 2.5 µM. Moreover, the 50% inhibitory concentration (IC50) at Cytochrome P450 1A2 is greater than 30 µM; against Cytochrome P450 2C9, less than 2.5 µM; in data set [9], greater than 10 µM. In data set [3], this molecule came in with a clearance of 68.6 mL/min/kg. Besides, the inhibition entry in data set [6] is “Dose-dependent effect”. In addition, the result in data set [8] and in data set [11] was Active. In data set [12], the Activity turned out to be 2.8%.
With `O=C(C1CN(S(=O)(=O)c2cccc3cnccc23)C1)N1CCN(c2ccncc2)CC1`, the IC50 in [2], in [4], in data set [5] and in data set [9] was greater than 10 µM each time. For the same molecule, in data set [12], the Activity was 2.7%.

The record behind these values is ChEMBL document CHEMBL2057199, “Development of novel M1 antagonist scaffolds through the continued optimization of the MLPCN probe ML012” (Bioorg Med Chem Lett, 2012).
